Results: patent publication US12336987B2, “Quinoline amides and methods of using same” (YALE UNIVERSITY, priority 2015, dated 2025)
Where no end group is shown, it is not given here.

What was measured:
IAPP = biological target: T1, IAPP (Homo sapiens, UniProt P10997); assay: Kinetic assay of IAPP fibre formation (ThT fluorescence), in solution or catalysed by LUVs; type: biochemical; details: 10 μM IAPP, 630 μM LUVs, IAPP:small molecule 1:1
T1 construct: purchased Genscript; Elim Biopharmaceuticals
T1 sequence (P10997 34-70 limits assumed): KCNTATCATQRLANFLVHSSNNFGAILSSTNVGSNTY
Description: Unless otherwise stated, LUVs used in this work were prepared from a 1:1 mixture of DOPG/DOPC. The lyophilized mixture was hydrated in 100 mM KCl, 50 mM sodium phosphate, and pH 7.4 for 20 minutes. A 20 mg/mL solution of lipid in buffer was passed 21 times through a polycarbonate membrane (pore diameter=100 nm).
Amyloid reactions were conducted in buffer containing liposome (630 μM lipid) and 20 μM ThT in a black 96-well plate. This was followed by addition of small molecule dissolved in DMSO (final DMSO concentration=0.5%, v/v). […] The final volume in each well was 200 μL. Kinetics of fibrillation was monitored by ThT fluorescence (Ex 450 nm and Em 485 nm) using a FluoDia T70 fluorescence plate reader (Photon Technology International, Edison, NJ, USA). […] Each kinetic trace was fit to a sigmoidal form:

INS-1 cells = assay: Cell viability (Cell-Titer Blue), IAPP induced toxicity and rescue; type: cell-based, rat; details: 13 μM IAPP; for rescue of IAPP induced toxicity, co-addition: 1:1 IAPP:ligand co-added, 48 h
Description: Rat insulinoma INS-1 cells (832/13, Dr. Gary W. Cline, Department of Internal Medicine, Yale University) were cultured at 37° C. and 5% CO2 in phenol red free RPMI 1640 media supplemented with 10% fetal bovine serum, 1% penicillin/streptomycin (Life Technologies, Carlsbad, CA, USA), and 2% INS-1 stock solution (500 mM HEPES, 100 mM L-glutamine, 100 mM sodium pyruvate, and 2.5 mM β-mercaptoethanol). Cells were passaged upon reaching ˜95% confluence (0.25% Trypsin-EDTA, Life Technologies), propagated, and/or used in experiments. Cells used in experiments were pelleted and resuspended in fresh media with no Trypsin-EDTA.
Cell viability was measured colourimetrically using the Cell-Titer Blue (CTB, Promega, Madison, WI, USA) fluorescence-based assay. Cells were plated at a density 5000 cells/well in 96-well plates (BD Biosciences, San Diego, CA). Peptide was directly introduced to each well after 48 h of culture and then further incubated for an additional 48 h. For time dependent experiments, cells were incubated with peptide for the specified time points. After the incubation period, 20 μL CTB reagent was added to each well and incubated at 37° C. and 5% CO2 for 2.5-3.5 h. Fluorescence of the resorufin product was measured on a FluoDia T70 fluorescence plate reader (Photon Technology International, Birmingham, NJ, USA). All wells included the same amount of water to account for different concentrations of peptide added to sample wells. Wells that included water vehicle but not peptide served as the negative control (0% toxic), and wells containing 10% DMSO were the positive control (100% toxic). Percent toxicity was calculated using the following equation: […]
Each independent variable is the average of eight plate replicates from the negative control (<N>), positive control (<P>), and samples (<S>). Results presented for viability experiments are an average of three such experiments conducted independently on different days. Error bars represent the standard error of the mean.

[1] = test system: Src and its homologue, Abl; details: background statement; cited from earlier work
IAPP20-29 = biological target: T2, IAPP20-29 (Homo sapiens, UniProt P10997); assay: Amyloid assembly kinetics of the 10-residue peptide IAPP20-29; type: biochemical; details: 200 μM IAPP20-29
T2 construct: the 10-residue sub-peptide, IAPP20-29
Description: Amyloid reactions were conducted in buffer containing liposome (630 μM lipid) and 20 μM ThT in a black 96-well plate. This was followed by addition of small molecule dissolved in DMSO (final DMSO concentration=0.5%, v/v). Fibre formation was initiated by addition of IAPP stock solution. The final volume in each well was 200 μL. Kinetics of fibrillation was monitored by ThT fluorescence (Ex 450 nm and Em 485 nm) using a FluoDia T70 fluorescence plate reader (Photon Technology International, Edison, NJ, USA). The data were blank subtracted and renormalized to the maximum intensity of reactions containing only IAPP. Each kinetic trace was fit to a sigmoidal form:
[formula] where I is the fluorescence intensity, t is time, and b, m, and r are dependent fitting variables. All samples were run at least in triplicate and error bars shown in the text represent ±one standard deviation. Transmission Electron Microscopy

Compound | rescue of IAPP induced toxicity, co-addition (INS-1 cells) | effect on liposome catalysed fibrillation (IAPP) | other results
COC(=O)c1cc(OCC(=O)O)c2cccc(NC(=O)c3cc(OCC(=O)O)c4cccc(NC(=O)c5cc(OCC(=O)O)c6cccc(NC(=O)c7cc(OCC(=O)O)c8cccc(NC(=O)c9cc(OCC(=O)O)c%10cccc([N+](=O)[O-])c%10n9)c8n7)c6n5)c4n3)c2c1 [ADM-118] |  |  | inhibition of liposome catalysed fibrillation, t50 relative to control (IAPP): 3.3±0.1 fold
O=C(O[C@@H]1Cc2c(O)cc(O)cc2O[C@@H]1c1cc(O)c(O)c(O)c1)c1cc(O)c(O)c(O)c1 [EGCG] | ineffective in rescuing toxicity | no detectable effect | 
Cc1ccc(NC(=O)c2ccc(CN3CCN(C)CC3)cc2)cc1Nc1nccc(-c2cccnc2)n1 [Gleevec] |  |  | difference in binding affinity between Src and Abl [1]: > 1,000 fold
Oc1ccc(C=Cc2cc(O)cc(O)c2)cc1 [resveratrol] | ineffective in rescuing toxicity | no detectable effect | 
IAPP20-29: 10-residue sub-peptide of IAPP, residues 20-29 (SNNFGAILSS; Islet amyloid polypeptide; UniProt P10997 53-62, looked up, fragment) |  |  | t50 of amyloid formation (IAPP20-29): 6.6 ± 0.3 h
IAPP: 37-residue, C-terminally amidated human islet amyloid polypeptide (SEQ ID NO:1) (KCNTATCATQRLANFLVHSSNNFGAILSSTNVGSNTY-NH2; cysteine pairing not given here) |  |  | decrease of INS-1 viability (INS-1 cells; 48 h incubation): 78±8%
acid fuchsin | ineffective in rescuing toxicity | no detectable effect | 
